Molecules are shown by their SMILES. In brackets after ≈: the same amount, converted by molar mass. Positions of bridges follow the written chain, without caps; N, C: chain ends. Non-standard residues stand in square brackets, D forms with d. Residues, ends and D or L forms follow the SMILES beside them. Groups on a side chain read outwards from the residue. Chains are numbered I, II in the order given. Dap = NC[C@H](N)C(=O)O

Consider seven molecules from US10336792B2, “Antimicrobial peptide dendrimers” (priority 2014, dated 2019).

The experiment has as its system Pseudomonas aeruginosa (strain PA01). The experiment can be described thus: microbe, parasite or virus in culture. The format is cell-based. The settings on record: strain. The procedure:
Antimicrobial activity was assayed against Bacillus subtilis (strain BR151), Escherichia coli (strain DH5α) and Pseudomonas aeruginosa (strain PA01). Microdilution broth method was used to determine the minimal inhibitory concentration (MIC). A colony of bacteria was grown in LB-medium overnight at 37° C. The concentration was quantified by measuring absorbance at 600 nm and diluted to OD600=0.1 (1×10^8 CFU/mL). The samples were prepared as stock solutions of 1 mg mL^−1 in H2O and diluted serially by ⅔ in nutrient LB in a 96-well microtiterplate (Cornstar, polypropylene, untreated). The sample solutions (50 μL) were mixed with the diluted bacterial suspension with an OD600 nm of 0.001 (50 μL). […] The plates were incubated at 37° C. until satisfactory growth (18-24 h). For each test, two columns of the plate were kept for sterility control (SC, broth only) and growth control (GC, broth with bacterial inoculums, no antibiotics). 10 μL of a solution of MTT (0.1% in H2O) was added to each well. The minimal inhibitory concentration (MIC) was defined as the lowest concentration of the antimicrobial substance (peptide dendrimer) that inhibited visible growth of the tested bacteria (yellow) with the unaided eye. For microbiological study the linear peptide LysTyrLysLysAlaLeuLysLysLeuAlaLysLeuLeu (SEQ ID No. 1) was used as reference.
All peptides were tested for their activity against P. aeruginosa PAO1 in a broth dilution assay (Wiegand, I. et al., 2008, Nat. Protoc., 3, 163-75; Clinical and Laboratory Standards Institute document M7-A7 7th Edition) to determine the MIC (minimal inhibitory concentration) values. The stock solutions of the peptide dendrimers were diluted serially by ⅔ in nutrient LB in 96-well microtiter plates. Bacteria were grown in nutrient LB overnight at 37° C. After dilution the bacteria were added to the peptides and incubated overnight (18-24 h) at 37° C. […] The position of the amino acids between the branching units seems to be optimal if the hydrophobic amino acid is the first counting from C-terminus and the charged one is on the second position. Introducing Ala as additional hydrophobic amino acid reduces activity (MSt-120). […] Also assembling charged or hydrophobic sections between the branching units leads to loss of activity whereas altering L-amino acids to D-amino acids maintains activity leading to the hypothesis that the mechanism of action should not be receptor mediated.
For `CC(C)C[C@H](NC(=O)[C@H](CCCCN)NC(=O)[C@H](CCCCNC(=O)[C@H](CC(C)C)NC(=O)[C@@H](N)CCCCN)NC(=O)[C@H](CC(C)C)NC(=O)[C@@H](N)CCCCN)C(=O)N[C@@H](CSSC[C@H](NC(=O)[C@H](CC(C)C)NC(=O)[C@H](CCCCN)NC(=O)[C@H](CCCCNC(=O)[C@H](CC(C)C)NC(=O)[C@@H](N)CCCCN)NC(=O)[C@H](CC(C)C)NC(=O)[C@@H](N)CCCCN)C(N)=O)C(N)=O` [CCS-5 dimer, ((KL)2KKLC)2] (I: H-KLK([Leu-Lys])KLC-NH2 / II: H-KLK([Leu-Lys])KLC-NH2; disulfide I:6-II:6), the “MIC P. aeruginosa PAO1” value amounted to 15 µg/mL (≈ 7.72 µM).

Turning to `CC(C)C[C@H](NC(=O)[C@H](CCCNC(=N)N)NC(=O)[C@H](CCCCNC(=O)[C@H](CC(C)C)NC(=O)[C@@H](N)CCCNC(=N)N)NC(=O)[C@H](CC(C)C)NC(=O)[C@@H](N)CCCNC(=N)N)C(=O)N[C@@H](CSSC[C@H](NC(=O)[C@H](CC(C)C)NC(=O)[C@H](CCCNC(=N)N)NC(=O)[C@H](CCCCNC(=O)[C@H](CC(C)C)NC(=O)[C@@H](N)CCCNC(=N)N)NC(=O)[C@H](CC(C)C)NC(=O)[C@@H](N)CCCNC(=N)N)C(N)=O)C(N)=O` [CCS-19 dimer, ((RL)2KRLC)2] (I: H-RLK([Leu-Arg])RLC-NH2 / II: H-RLK([Leu-Arg])RLC-NH2; disulfide I:6-II:6; N-terminus assumed), the “MIC P. aeruginosa PAO1” value came out at 5 µg/mL (≈ 2.37 µM). Take `CC(C)C[C@H](NC(=O)[C@H](CCCNC(=N)N)NC(=O)[C@H](CCCCNC(=O)[C@H](CC(C)C)NC(=O)[C@H](CCCNC(=N)N)NC(=O)[C@H](CCCCNC(=O)[C@H](CC(C)C)NC(=O)[C@H](CCCNC(=N)N)NC(=O)CSC[C@H](NC(=O)[C@H](CC(C)C)NC(=O)[C@H](CCCNC(=N)N)NC(=O)[C@H](CCCCNC(=O)[C@H](CC(C)C)NC(=O)[C@@H](N)CCCNC(=N)N)NC(=O)[C@H](CC(C)C)NC(=O)[C@@H](N)CCCNC(=N)N)C(N)=O)NC(=O)[C@H](CC(C)C)NC(=O)[C@H](CCCNC(=N)N)NC(=O)CSC[C@H](NC(=O)[C@H](CC(C)C)NC(=O)[C@H](CCCNC(=N)N)NC(=O)[C@H](CCCCNC(=O)[C@H](CC(C)C)NC(=O)[C@@H](N)CCCNC(=N)N)NC(=O)[C@H](CC(C)C)NC(=O)[C@@H](N)CCCNC(=N)N)C(N)=O)NC(=O)[C@H](CC(C)C)NC(=O)[C@H](CCCNC(=N)N)NC(=O)[C@H](CCCCNC(=O)[C@H](CC(C)C)NC(=O)[C@H](CCCNC(=N)N)NC(=O)CSC[C@H](NC(=O)[C@H](CC(C)C)NC(=O)[C@H](CCCNC(=N)N)NC(=O)[C@H](CCCCNC(=O)[C@H](CC(C)C)NC(=O)[C@@H](N)CCCNC(=N)N)NC(=O)[C@H](CC(C)C)NC(=O)[C@@H](N)CCCNC(=N)N)C(N)=O)NC(=O)[C@H](CC(C)C)NC(=O)[C@H](CCCNC(=N)N)NC(=O)CSC[C@H](NC(=O)[C@H](CC(C)C)NC(=O)[C@H](CCCNC(=N)N)NC(=O)[C@H](CCCCNC(=O)[C@H](CC(C)C)NC(=O)[C@@H](N)CCCNC(=N)N)NC(=O)[C@H](CC(C)C)NC(=O)[C@@H](N)CCCNC(=N)N)C(N)=O)C(N)=O` [CCS-27, (RL)8(KRLCxRL)4(KRL)2KRL]: the “MIC P. aeruginosa PAO1” value stood at 12 µg/mL (≈ 1.8 µM). Turning to `CC(C)C[C@H](NC(=O)[C@H](CCCCN)NC(=O)[C@H](CC(C)C)NC(=O)[C@H](CCCCNC(=O)[C@H](CC(C)C)NC(=O)[C@H](CCCCN)NC(=O)[C@H](CC(C)C)NC(=O)[C@H](CCCCNC(=O)[C@H](CC(C)C)NC(=O)[C@H](CCCCN)NC(=O)[C@@H](N)CC(C)C)NC(=O)[C@H](CC(C)C)NC(=O)[C@H](CCCCN)NC(=O)[C@@H](N)CC(C)C)NC(=O)[C@H](CC(C)C)NC(=O)[C@H](CCCCN)NC(=O)[C@H](CC(C)C)NC(=O)[C@H](CCCCNC(=O)[C@H](CC(C)C)NC(=O)[C@H](CCCCN)NC(=O)[C@@H](N)CC(C)C)NC(=O)[C@H](CC(C)C)NC(=O)[C@H](CCCCN)NC(=O)[C@@H](N)CC(C)C)C(N)=O` [MIS-04, (LKL)4(KLKL)2(KLKL)] (I: H-LKLK([Leu-Lys-Leu])LKLKLKL-NH2 / II: H-LKLK([Leu-Lys-Leu])LKL; amide I:8-II:C), the “MIC P. aeruginosa PAO1” value was 2 µg/mL (≈ 0.694 µM). With `CC(C)C[C@H](NC(=O)[C@H](CC(C)C)NC(=O)[C@H](CCCCN)NC(=O)[C@H](CCCCNC(=O)[C@H](CC(C)C)NC(=O)[C@H](CC(C)C)NC(=O)[C@H](CCCCN)NC(=O)[C@H](CCCCNC(=O)[C@H](CC(C)C)NC(=O)[C@H](CC(C)C)NC(=O)[C@H](CCCCN)NC(=O)[C@H](CCCCNC(=O)[C@H](CC(C)C)NC(=O)[C@H](CC(C)C)NC(=O)[C@@H](N)CCCCN)NC(=O)[C@H](CC(C)C)NC(=O)[C@H](CC(C)C)NC(=O)[C@@H](N)CCCCN)NC(=O)[C@H](CC(C)C)NC(=O)[C@H](CC(C)C)NC(=O)[C@H](CCCCN)NC(=O)[C@H](CCCCNC(=O)[C@H](CC(C)C)NC(=O)[C@H](CC(C)C)NC(=O)[C@@H](N)CCCCN)NC(=O)[C@H](CC(C)C)NC(=O)[C@H](CC(C)C)NC(=O)[C@@H](N)CCCCN)NC(=O)[C@H](CC(C)C)NC(=O)[C@H](CC(C)C)NC(=O)[C@H](CCCCN)NC(=O)[C@H](CCCCNC(=O)[C@H](CC(C)C)NC(=O)[C@H](CC(C)C)NC(=O)[C@H](CCCCN)NC(=O)[C@H](CCCCNC(=O)[C@H](CC(C)C)NC(=O)[C@H](CC(C)C)NC(=O)[C@@H](N)CCCCN)NC(=O)[C@H](CC(C)C)NC(=O)[C@H](CC(C)C)NC(=O)[C@@H](N)CCCCN)NC(=O)[C@H](CC(C)C)NC(=O)[C@H](CC(C)C)NC(=O)[C@H](CCCCN)NC(=O)[C@H](CCCCNC(=O)[C@H](CC(C)C)NC(=O)[C@H](CC(C)C)NC(=O)[C@@H](N)CCCCN)NC(=O)[C@H](CC(C)C)NC(=O)[C@H](CC(C)C)NC(=O)[C@@H](N)CCCCN)C(N)=O` [MIS-06, (KLL)8(KKLL)4(KKLL)2(KKLL)] (I: H-KLLK([Leu-Leu-Lys])KLLKKLLKKLL-NH2 / II: H-KLLK([Leu-Leu-Lys])KLLKKLL / III: H-KLLK([Leu-Leu-Lys])KLL / IV: H-KLLK([Leu-Leu-Lys])KLL; amide I:8-IV:C, I:12-II:C, II:8-III:C) the figure was 11 µg/mL (≈ 1.77 µM); with `CC(C)C[C@H](NC(=O)[C@H](CCCCN)NC(=O)[C@H](CC(C)C)NC(=O)[C@H](CCCCNC(=O)[C@H](CC(C)C)NC(=O)[C@H](CCCCN)NC(=O)[C@H](CC(C)C)NC(=O)[C@H](CCCCNC(=O)[C@H](CC(C)C)NC(=O)[C@H](CCCCN)NC(=O)[C@H](CC(C)C)NC(=O)[C@H](CCCCNC(=O)[C@H](CC(C)C)NC(=O)[C@H](CCCCN)NC(=O)[C@@H](N)CC(C)C)NC(=O)[C@H](CC(C)C)NC(=O)[C@H](CCCCN)NC(=O)[C@@H](N)CC(C)C)NC(=O)[C@H](CC(C)C)NC(=O)[C@H](CCCCN)NC(=O)[C@H](CC(C)C)NC(=O)[C@H](CCCCNC(=O)[C@H](CC(C)C)NC(=O)[C@H](CCCCN)NC(=O)[C@@H](N)CC(C)C)NC(=O)[C@H](CC(C)C)NC(=O)[C@H](CCCCN)NC(=O)[C@@H](N)CC(C)C)NC(=O)[C@H](CC(C)C)NC(=O)[C@H](CCCCN)NC(=O)[C@H](CC(C)C)NC(=O)[C@H](CCCCNC(=O)[C@H](CC(C)C)NC(=O)[C@H](CCCCN)NC(=O)[C@H](CC(C)C)NC(=O)[C@H](CCCCNC(=O)[C@H](CC(C)C)NC(=O)[C@H](CCCCN)NC(=O)[C@@H](N)CC(C)C)NC(=O)[C@H](CC(C)C)NC(=O)[C@H](CCCCN)NC(=O)[C@@H](N)CC(C)C)NC(=O)[C@H](CC(C)C)NC(=O)[C@H](CCCCN)NC(=O)[C@H](CC(C)C)NC(=O)[C@H](CCCCNC(=O)[C@H](CC(C)C)NC(=O)[C@H](CCCCN)NC(=O)[C@@H](N)CC(C)C)NC(=O)[C@H](CC(C)C)NC(=O)[C@H](CCCCN)NC(=O)[C@@H](N)CC(C)C)C(N)=O` [MIS-08, (LKL)8(KLKL)4(KLKL)2(KLKL)] (I: H-LKLK([Leu-Lys-Leu])LKLKLKLKLKL-NH2 / II: H-LKLK([Leu-Lys-Leu])LKLKLKL / III: H-LKLK([Leu-Lys-Leu])LKL / IV: H-LKLK([Leu-Lys-Leu])LKL; amide I:8-IV:C, I:12-II:C, II:8-III:C), 4 µg/mL (≈ 0.642 µM); with `CC(C)C[C@H](NC(=O)[C@H](CCCCN)NC(=O)[C@H](CNC(=O)[C@H](CC(C)C)NC(=O)[C@H](CCCCN)NC(=O)[C@H](CNC(=O)[C@H](CC(C)C)NC(=O)[C@@H](N)CCCCN)NC(=O)[C@H](CC(C)C)NC(=O)[C@@H](N)CCCCN)NC(=O)[C@H](CC(C)C)NC(=O)[C@H](CCCCN)NC(=O)[C@H](CNC(=O)[C@H](CC(C)C)NC(=O)[C@@H](N)CCCCN)NC(=O)[C@H](CC(C)C)NC(=O)[C@@H](N)CCCCN)C(N)=O` [MSt-138, (KL)4(BKL)2(BKL)] (I: H-KL[Dap]([Leu-Lys])KL[Dap]KL-NH2 / II: H-KL[Dap]([Leu-Lys])KL; amide I:6-II:C), 2 µg/mL (≈ 1.02 µM).
